Measurements taken from patent US20240174744A1, “METHODS OF TREATMENT USING PROTEIN BINDERS TO IRHOM2 EPITOPES” (SCIRHOM GMBH, priority 2021, published 2024).

System: PMA-induced release of IL-6R from THP-1 cells
Assay: ELISA-based IL-6R release assay, PMA-stimulated THP-1 cells
Type: cell-based
Conditions: Homo sapiens, recombinant murine antibodies 1 μg/ml, Batimastat 10 μM, PMA 25 ng/ml, 1 hour
Description: In the following study, ELISA-based IL-6R release assays were performed to analyze the inhibitory effects of the antibodies of the present disclosure on PMA-induced release of endogenous IL-6R from human THP-1 monocytic cells.
In brief, on day 1, Nunc black MaxiSorp® 96-well plates (Thermo Fisher Scientific, USA) were coated for 7 hours with 100 μl per well of mouse anti-human IL-6R capture antibody (provided as part of the DuoSet ELISA kit) at 2 μg/ml TBS at room temperature. Capture antibody solution was removed and MaxiSorp® plates were blocked with 300 μl per well of TBS, 1% BSA at room temperature for 1.5 hours. […] Using an infinite M1000 (Tecan Group, Switzerland) microplate reader, the fluorescence of each well was collected at an excitation wavelength of 435 nm and an emission wavelength of 555 nm.

CNC(=O)[C@H](Cc1ccccc1)NC(=O)[C@H](CC(C)C)[C@H](CSc1cccs1)C(=O)NO [Batimastat]
inhibition at 10 µM: 88.6%
